# In patent US11634390B2, “Agricultural chemicals” (GLOBACHEM NV, priority 2016, dated 2023):
# Where a name gives a salt, the structure may show the parent alone.
# Legend:
# Type in all cases: in vivo
# [1] = test system: Stellaria media; assay: Herbicidal screen, post-emergence spray of seedlings in pots: Chickweed; details: Stellaria media, post-emergence, 240 h, assessed 10 days after treatment, read-out: percentage increase in necrosis relative to the control
# Method: (§1) Compounds were screened at four concentrations (100, 50, 25 and 12.5 g/ha) against four weed species (Stellaria media—Chickweed; Abutilon theophrasti—velvetleaf; Amaranthus retroflexus—common amaranthus; Echinochloa crus-galli—Barnyard grass) and maize as a crop species. Seed were sown in 12.5 cm diameter pots (20 per pot for the weed species and 5 for maize). Seedlings were sprayed with 2 ml of compound two weeks after sowing, with 2 ml water used as the control. Each treatment was replicated three times. Plants were maintained at 20° C. and assessed 10 days after treatment. The assessment was based on the % plant in each pot showing growth. The data is presented in Table 1 in which d represents no detected effect at this concentration; c represents a percentage increase in necrosis relative to the control of 0.1-50; b represents a percentage increase in necrosis of 50-80; and a represents a percentage increase in necrosis of 80-100.
# [2] = test system: Amaranthus retroflexus; assay: Herbicidal screen, post-emergence spray of seedlings in pots: common amaranthus; details: Amaranthus retroflexus, post-emergence, 240 h, assessed 10 days after treatment, read-out: percentage increase in necrosis relative to the control
# Method: as §1
# [3] = test system: Abutilon theophrasti; assay: Herbicidal screen, post-emergence spray of seedlings in pots: velvetleaf; details: Abutilon theophrasti, post-emergence, 240 h, assessed 10 days after treatment, read-out: percentage increase in necrosis relative to the control
# Method: as §1
# [4] = test system: Echinochloa crus-galli; assay: Herbicidal screen, post-emergence spray of seedlings in pots: Barnyard grass; details: Echinochloa crus-galli, post-emergence, 240 h, assessed 10 days after treatment, read-out: percentage increase in necrosis relative to the control
# Method: as §1
# [5] = test system: maize; assay: Herbicidal screen, post-emergence spray of seedlings in pots: crop species; details: Zea mays, post-emergence, 240 h, assessed 10 days after treatment, read-out: percentage increase in necrosis relative to the control
# Method: as §1
Compound,pest or weed control at 12.5 g/ha [1],pest or weed control at 25 g/ha [1],pest or weed control at 50 g/ha [1],pest or weed control at 100 g/ha [1],pest or weed control at 12.5 g/ha [2],pest or weed control at 25 g/ha [2],pest or weed control at 50 g/ha [2],pest or weed control at 100 g/ha [2],pest or weed control at 12.5 g/ha [3],pest or weed control at 25 g/ha [3],pest or weed control at 50 g/ha [3],pest or weed control at 100 g/ha [3],pest or weed control at 12.5 g/ha [4],pest or weed control at 25 g/ha [4],pest or weed control at 50 g/ha [4],pest or weed control at 100 g/ha [4],plant injury at 12.5 g/ha [5],plant injury at 25 g/ha [5],plant injury at 50 g/ha [5],plant injury at 100 g/ha [5]
"Cn1c(C(F)(F)F)cc(=O)n(-c2cc(C(=O)NS(=O)(=O)C3CCOCC3)c(Cl)cc2F)c1=O [Example 1, 2-Chloro-4-fluoro-5-(3-methyl-2,6-dioxo-4-(trifluoromethyl)-3,6-dihydropyrimidin-1(2H)-yl)-N-((tetrahydro-2H-pyran-4-yl)sulfonyl)benzamide]",0.1 to 50%,0.1 to 50%,0.1 to 50%,0.1 to 50%,0.1 to 50%,50 to 80%,50 to 80%,80 to 100%,0.1 to 50%,50 to 80%,50 to 80%,50 to 80%,0.1 to 50%,0.1 to 50%,0.1 to 50%,0.1 to 50%,0.1 to 50%,0.1 to 50%,0.1 to 50%,0.1 to 50%
"Cn1c(C(F)(F)F)cc(=O)n(-c2cc(C(=O)NS(=O)(=O)C3CCNC3)c(Cl)cc2F)c1=O (stereo not drawn) [Example 4, 2-Chloro-4-fluoro-5-(3-methyl-2,6-dioxo-4-(trifluoromethyl)-3,6-dihydropyrimidin-1(2H)-yl)-N-(pyrrolidin-3-ylsulfonyl)benzamide hydrochloride]",0.1 to 50%,0.1 to 50%,0.1 to 50%,50 to 80%,50 to 80%,50 to 80%,80 to 100%,80 to 100%,0.1 to 50%,0.1 to 50%,0.1 to 50%,50 to 80%,0.1 to 50%,0.1 to 50%,0.1 to 50%,0.1 to 50%,0.1 to 50%,0.1 to 50%,0.1 to 50%,0.1 to 50%
"Cn1c(C(F)(F)F)cc(=O)n(-c2cc(C(=O)NS(=O)(=O)C3CNC3)c(Cl)cc2F)c1=O [Example 6, N-(Azetidin-3-ylsulfonyl)-2-chloro-4-fluoro-5-(3-methyl-2,6-dioxo-4-(trifluoromethyl)-3,6-dihydropyrimidin-1(2H)-yl)benzamide hydrochloride]",0.1 to 50%,0.1 to 50%,0.1 to 50%,50 to 80%,50 to 80%,50 to 80%,80 to 100%,80 to 100%,0.1 to 50%,0.1 to 50%,50 to 80%,50 to 80%,0.1 to 50%,0.1 to 50%,0.1 to 50%,0.1 to 50%,0.1 to 50%,0.1 to 50%,0.1 to 50%,0.1 to 50%
"Cn1c(C(F)(F)F)cc(=O)n(-c2cc(C(=O)NS(=O)(=O)C3CC3)c(F)cc2F)c1=O [Example 8, N-(Cyclopropylsulfonyl)-2,4-difluoro-5-(3-methyl-2,6-dioxo-4-(trifluoromethyl)-3,6-dihydropyrimidin-1(2H)-yl)benzamide]",0.1 to 50%,0.1 to 50%,0.1 to 50%,50 to 80%,0.1 to 50%,0.1 to 50%,80 to 100%,80 to 100%,0.1 to 50%,0.1 to 50%,50 to 80%,50 to 80%,0.1 to 50%,0.1 to 50%,50 to 80%,50 to 80%,0.1 to 50%,0.1 to 50%,0.1 to 50%,0.1 to 50%
"Cn1c(C(F)(F)F)cc(=O)n(-c2cc(C(=O)NS(=O)(=O)C3CCS(=O)(=O)C3)c(Cl)cc2F)c1=O (stereo not drawn) [Example 10, 2-Chloro-N-((1,1-dioxidotetrahydrothiophen-3-yl)sulfonyl)-4-fluoro-5-(3-methyl-2,6-dioxo-4-(trifluoromethyl)-3,6-dihydropyrimidin-1(2H)-yl)benzamide]",0.1 to 50%,0.1 to 50%,0.1 to 50%,0.1 to 50%,50 to 80%,50 to 80%,50 to 80%,50 to 80%,0.1 to 50%,0.1 to 50%,0.1 to 50%,0.1 to 50%,0.1 to 50%,0.1 to 50%,0.1 to 50%,0.1 to 50%,0.1 to 50%,0.1 to 50%,0.1 to 50%,0.1 to 50%
"Cn1c(C(F)(F)F)cc(=O)n(-c2cc(C(=O)NS(=O)(=O)C3CC3)c(Cl)cc2F)c1=O [Example 12, 2-Chloro-N-(cyclopropylsulfonyl)-4-fluoro-5-(3-methyl-2,6-dioxo-4-(trifluoromethyl)-3,6-dihydropyrimidin-1(2H)-yl)benzamide]",0.1 to 50%,0.1 to 50%,0.1 to 50%,0.1 to 50%,50 to 80%,50 to 80%,80 to 100%,80 to 100%,0.1 to 50%,0.1 to 50%,0.1 to 50%,50 to 80%,0.1 to 50%,0.1 to 50%,0.1 to 50%,0.1 to 50%,0.1 to 50%,0.1 to 50%,0.1 to 50%,0.1 to 50%
